Reference: US12162890B2 (Novartis AG, priority 2015, dated 2024)

Biological target: HEK293 cells with stable expression of the GRIN1 gene and tetracycline-inducible expression of the GRIN2B gene (NMDA receptor, NR2B) (Homo sapiens, UniProt Q13224)
Experiment: Fluo-8 Ca2+ flux assay: reversal of Ro 25-6981-mediated suppression of the Ca2+ response to co-agonist (glutamate/glycine); also: test concentration or dose not given here
Format: cell-based
Conditions: reversal of the Ro 25-6981 suppression of the Ca2+ response to co-agonist (glutamate/glycine)

Chain of HEK293 cells with stable expression of the GRIN1 gene and tetracycline-inducible expression of the GRIN2B gene (NMDA receptor, NR2B) (Q13224 27-1484, other chains not shown): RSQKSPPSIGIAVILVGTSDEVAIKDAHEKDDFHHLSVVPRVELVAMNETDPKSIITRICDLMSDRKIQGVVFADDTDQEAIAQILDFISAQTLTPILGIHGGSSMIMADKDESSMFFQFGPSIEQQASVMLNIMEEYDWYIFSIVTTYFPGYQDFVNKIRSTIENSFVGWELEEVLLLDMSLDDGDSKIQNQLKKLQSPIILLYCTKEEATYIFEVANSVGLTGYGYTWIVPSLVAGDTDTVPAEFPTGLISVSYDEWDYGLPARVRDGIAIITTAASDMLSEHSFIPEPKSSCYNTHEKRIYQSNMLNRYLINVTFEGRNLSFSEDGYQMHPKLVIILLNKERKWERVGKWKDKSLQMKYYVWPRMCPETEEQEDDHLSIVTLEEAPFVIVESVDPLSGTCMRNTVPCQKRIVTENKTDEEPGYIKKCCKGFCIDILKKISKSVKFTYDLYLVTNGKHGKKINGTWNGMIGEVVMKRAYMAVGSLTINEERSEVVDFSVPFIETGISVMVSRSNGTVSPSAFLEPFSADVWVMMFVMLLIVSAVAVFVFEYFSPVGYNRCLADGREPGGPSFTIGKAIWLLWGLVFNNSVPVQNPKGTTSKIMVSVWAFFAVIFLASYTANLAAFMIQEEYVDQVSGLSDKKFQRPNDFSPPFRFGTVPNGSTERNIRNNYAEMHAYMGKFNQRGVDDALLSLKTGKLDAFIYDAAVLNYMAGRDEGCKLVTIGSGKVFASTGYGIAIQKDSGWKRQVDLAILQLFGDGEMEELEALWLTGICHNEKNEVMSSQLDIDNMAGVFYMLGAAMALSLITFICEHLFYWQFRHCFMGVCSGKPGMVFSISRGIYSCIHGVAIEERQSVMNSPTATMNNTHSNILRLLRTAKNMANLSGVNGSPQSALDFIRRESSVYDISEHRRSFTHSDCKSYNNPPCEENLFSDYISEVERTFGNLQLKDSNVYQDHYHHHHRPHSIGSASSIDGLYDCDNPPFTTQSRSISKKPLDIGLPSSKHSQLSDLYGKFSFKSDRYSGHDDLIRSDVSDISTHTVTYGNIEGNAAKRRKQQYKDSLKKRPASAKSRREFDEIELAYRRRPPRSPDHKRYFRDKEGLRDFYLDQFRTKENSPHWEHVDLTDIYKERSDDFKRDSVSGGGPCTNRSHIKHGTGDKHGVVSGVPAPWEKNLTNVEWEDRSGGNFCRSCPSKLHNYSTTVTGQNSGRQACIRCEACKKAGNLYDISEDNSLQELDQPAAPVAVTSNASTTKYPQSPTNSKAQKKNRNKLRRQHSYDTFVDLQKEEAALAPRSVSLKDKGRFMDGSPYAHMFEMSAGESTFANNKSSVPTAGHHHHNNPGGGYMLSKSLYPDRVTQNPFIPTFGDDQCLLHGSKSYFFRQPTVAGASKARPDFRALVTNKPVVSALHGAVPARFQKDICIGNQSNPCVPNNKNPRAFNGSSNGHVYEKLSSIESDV

Compound	Response Recovered (%)
O=C(Cn1ccc2c(c(-c3ccc(F)c(Cl)c3)cn2C2CC2)c1=O)N1CCC(F)C1 (centres unmarked) [Example 232, 3-(3-chloro-4-fluorophenyl)-1-cyclopropyl-5-(2-(3-fluoropyrrolidin-1-yl)-2-oxoethyl)-1H-pyrrolo[3,2-c]pyridin-4(5H)-one]	66
O=C(Cn1ccn2ccc(-c3ccc(F)c(Cl)c3)c2c1=O)N1CCC(F)C1 (centres unmarked) [Example 393, 8-(3-chloro-4-fluorophenyl)-2-(2-(3-fluoropyrrolidin-1-yl)-2-oxoethyl)pyrrolo[1,2-a]pyrazin-1(2H)-one]	49
O=C(Cn1ccc2scc(-c3ccc(F)c(Cl)c3)c2c1=O)N1CC(F)(F)C1 [Example 8, 3-(3-Chloro-4-fluorophenyl)-5-[2-(3,3-difluoro-azetidin-1-yl)-2-oxo-ethyl]-5H-thieno[3,2-c]pyridin-4-one]	66
O=C(Cn1ccn2c(Br)cc(-c3ccc(F)c(C(F)(F)F)c3)c2c1=O)N1CCC(F)C1 (centres unmarked) [Example 423, 6-bromo-8-(4-fluoro-3-(trifluoromethyl)phenyl)-2-(2-(3-fluoropyrrolidin-1-yl)-2-oxoethyl)pyrrolo[1,2-a]pyrazin-1(2H)-one]	72
CN(C)Cc1cn(CC(=O)N2CCC(F)C2)c(=O)c2c(-c3ccc(F)c(C(F)(F)F)c3)csc12 (centres unmarked) [Example 116, 7-((dimethylamino)methyl)-3-(4-fluoro-3-(trifluoromethyl)phenyl)-5-(2-(3-fluoropyrrolidin-1-yl)-2-oxoethyl)thieno[3,2-c]pyridin-4(5H)-one]	70
O=C(Cn1ccn2ccc(-c3ccc(F)c(C(F)(F)F)c3)c2c1=O)N1CCCC1 [Example 391, 8-(4-fluoro-3-(trifluoromethyl)phenyl)-2-(2-oxo-2-(pyrrolidin-1-yl)ethyl)pyrrolo[1,2-a]pyrazin-1(2H)-one]	77
O=C(Cn1ccc2scc(-c3ccc(F)c(Cl)c3)c2c1=O)N1CC2C(C1)C2(F)F (centres unmarked) [Example 65, 3-(3-chloro-4-fluorophenyl)-5-(2-(6,6-difluoro-3-azabicyclo[3.1.0]hex-an-3-yl)-2-oxoethyl)thieno[3,2-c]pyridin-4(5H)-one]	13
C[Si](C)(C)CCOCn1cc(-c2ccc(F)c(Cl)c2)c2c(=O)n(CC(=O)N3CCCC3)ccc21 [Example 205, 3-(3-chloro-4-fluorophenyl)-5-(2-oxo-2-(pyrrolidin-1-yl)ethyl)-1-((2-(trimethylsilyl)ethoxy)methyl)-1H-pyrrolo[3,2-c]pyridin-4(5H)-one]	59
Cn1cc(-n2cc(-c3ccc(F)c(Cl)c3)c3c(=O)n(CC(=O)N4CC(C)(F)C4)ccc32)cn1 [Example 286, 3-(3-chloro-4-fluorophenyl)-5-(2-(3-fluoro-3-methylazetidin-1-yl)-2-oxoethyl)-1-(1-methyl-1H-pyrazol-4-yl)-1H-pyrrolo[3,2-c]pyridin-4(5H)-one]	130
Cn1cc(-c2ccc(Cl)c(F)c2)c2c(=O)n(CC(=O)N3CCCC3)cnc21 [Example 165, 5-(4-chloro-3-fluorophenyl)-7-methyl-3-(2-oxo-2-(pyrrolidin-1-yl)ethyl)-3H-pyrrolo[2,3-d]pyrimidin-4(7H)-one]	25
O=C(Cn1ccc2ccc(-c3ccc(F)c(C(F)(F)F)c3)cc2c1=O)N1CCC(F)C1 (centres unmarked) [Example 314, 7-(4-fluoro-3-(trifluoromethyl)phenyl)-2-(2-(3-fluoropyrrolidin-1-yl)-2-oxoethyl)isoquinolin-1(2H)-one]	8
O=C(Cn1cnc2csc(-c3ccc(Cl)c(F)c3)c2c1=O)N1CCCC1 [Example 367, 5-(4-chloro-3-fluorophenyl)-3-(2-oxo-2-(pyrrolidin-1-yl)ethyl)thieno[3,4-d]pyrimidin-4(3H)-one]	15
O=C(Cn1ccc2ncc(-c3cnc(Cl)c(C(F)(F)F)c3)n2c1=O)N1CCC(F)C1 (centres unmarked) [Example 449, 3-(6-chloro-5-(trifluoromethyl)pyridin-3-yl)-6-(2-(3-fluoropyrrolidin-1-yl)-2-oxoethyl)imidazo[1,2-c]pyrimidin-5(6H)-one]	5.2
Cn1cc(-n2cc(-c3ccc(F)c(Cl)c3)c3c(=O)n(CC(=O)N4CCC(F)C4)ccc32)nn1 (centres unmarked) [Example 267, 3-(3-chloro-4-fluorophenyl)-5-(2-(3-fluoropyrrolidin-1-yl)-2-oxoethyl)-1-(1-methyl-1H-1,2,3-triazol-4-yl)-1H-pyrrolo[3,2-c]pyridin-4(5H)-one]	27
O=C(Cn1ccc2c(c(-c3ccc(F)c(C(F)(F)F)c3)cn2-c2ccncn2)c1=O)N1CCC(F)C1 (centres unmarked) [Example 244, 3-(4-fluoro-3-(trifluoromethyl)phenyl)-5-(2-(3-fluoropyrrolidin-1-yl)-2-oxoethyl)-1-(pyrimidin-4-yl)-1H-pyrrolo[3,2-c]pyridin-4(5H)-one]	110
Cn1cc(-n2cc(-c3ccc(F)c(Cl)c3)c3c(=O)n(CC(=O)N4CC(C)(F)C4)ccc32)nn1 [Example 271, 3-(3-chloro-4-fluorophenyl)-5-(2-(3-fluoro-3-methylazetidin-1-yl)-2-oxoethyl)-1-(1-methyl-1H-1,2,3-triazol-4-yl)-1H-pyrrolo[3,2-c]pyridin-4(5H)-one]	140

Compound	Response Recovered (%)
O=C(Cn1ccn2ncc(-c3ccc(Cl)c(Cl)c3)c2c1=O)N1CC(F)(F)C1 [Example 325, 3-(3,4-dichlorophenyl)-5-(2-(3,3-difluoroazetidin-1-yl)-2-oxoethyl)pyrazolo[1,5-a]pyrazin-4(5H)-one]	50
O=C(Cn1ccc2cccc(-c3ccc(Cl)c(Cl)c3)c2c1=O)N1CCC(F)C1 (centres unmarked) [Example 304, 8-(3,4-dichlorophenyl)-2-(2-(3-fluoropyrrolidin-1-yl)-2-oxoethyl)isoquinolin-1(2H)-one]	60
Cn1cc(-n2cc(-c3ccc(F)c(C(F)(F)F)c3)c3c(=O)n(CC(=O)N4CCC(F)C4)ccc32)cn1 (centres unmarked) [Example 234]	80
C[Si](C)(C)CCOCn1cc(-c2ccc(Cl)c(F)c2)c2c(=O)n(CC(=O)N3CCCC3)ccc21 [Example 201, 3-(4-chloro-3-fluorophenyl)-5-(2-oxo-2-(pyrrolidin-1-yl)ethyl)-1-((2-(trimethylsilyl)ethoxy)methyl)-1H-pyrrolo[3,2-c]pyridin-4(5H)-one]	62
Cc1sc(-c2ccc(Cl)c(F)c2)c2c(=O)n(CC(=O)N3CCCC3)cnc12 [Example 369, 5-(4-chloro-3-fluorophenyl)-7-methyl-3-(2-oxo-2-(pyrrolidin-1-yl)ethyl)thieno[3,4-d]pyrimidin-4(3H)-one]	33
O=C(Cn1ccc2[nH]cc(-c3ccc(F)c(Cl)c3)c2c1=O)N1CCCC1 [Example 208, 3-(3-chloro-4-fluorophenyl)-5-(2-oxo-2-(pyrrolidin-1-yl)ethyl)-1H-pyrrolo[3,2-c]pyridin-4(5H)-one]	60
O=C(Cn1ccc2scc(-c3ccc(Cl)c(C(F)(F)F)c3)c2c1=O)N1CCCC1 [Example 1, 3-(4-chloro-3-(trifluoromethyl)phenyl)-5-(2-oxo-2-(pyrrolidin-1-yl)ethyl)thieno[3,2-c]pyridin-4(5H)-one]	83
O=C(Cn1ccn2ccc(-c3ccc(Cl)c(Cl)c3)c2c1=O)N1CCCC1 [Example 394, 8-(3,4-dichlorophenyl)-2-(2-oxo-2-(pyrrolidin-1-yl)ethyl)pyrrolo[1,2-a]pyrazin-1(2H)-one]	62
Cn1cc(-n2cc(-c3ccc(Cl)c(Cl)c3)c3c(=O)n(CC(=O)N4CC(C)(F)C4)ccc32)cn1 [Example 284, 3-(3,4-dichlorophenyl)-5-(2-(3-fluoro-3-methylazetidin-1-yl)-2-oxoethyl)-1-(1-methyl-1H-pyrazol-4-yl)-1H-pyrrolo[3,2-c]pyridin-4(5H)-one]	5.2
N#Cc1cn(CC(=O)N2CCCC2)c(=O)c2c(-c3ccc(Cl)c(C(F)(F)F)c3)csc12 [Example 99, 3-(4-chloro-3-(trifluoromethyl)phenyl)-4-oxo-5-(2-oxo-2-(pyrrolidin-1-yl)ethyl)-4,5-dihydrothieno[3,2-c]pyridine-7-carbonitrile]	37
O=C(Cn1cnc2occ(-c3ccc(Cl)cc3)c2c1=O)N1CCCC1 [Example 388, 5-(4-chlorophenyl)-3-(2-oxo-2-(pyrrolidin-1-yl)ethyl)furo[2,3-d]pyrimidin-4(3H)-one]	8
Cc1cn(CC(=O)N2CC(F)(F)C2)c(=O)c2c(-c3ccc(F)c(Cl)c3)ccn12 [Example 417, 8-(3-chloro-4-fluorophenyl)-2-(2-(3,3-difluoroazetidin-1-yl)-2-oxoethyl)-4-methylpyrrolo[1,2-a]pyrazin-1(2H)-one]	20
CC1(F)CN(C(=O)Cn2ccc3scc(-c4cnc(F)c(F)c4)c3c2=O)C1 [Example 139, 3-(5,6-difluoropyridin-3-yl)-5-(2-(3-fluoro-3-methylazetidin-1-yl)-2-oxoethyl)thieno[3,2-c]pyridin-4(5H)-one]	11
Cn1cc(-c2ccc(F)c(Cl)c2)c2c(=O)n(CC(=O)N3CCCC3)cnc21 [Example 159, 5-(3-chloro-4-fluorophenyl)-7-methyl-3-(2-oxo-2-(pyrrolidin-1-yl)ethyl)-3H-pyrrolo[2,3-d]pyrimidin-4(7H)-one]	25
O=C(Cn1nnc2scc(-c3ccc(Cl)c(C(F)(F)F)c3)c2c1=O)N1CCC(F)C1 (centres unmarked) [Example 332, 5-(4-chloro-3-(trifluoromethyl)phenyl)-3-(2-(3-fluoropyrrolidin-1-yl)-2-oxoethyl)thieno[2,3-d][1,2,3]triazin-4(3H)-one]	20
CCn1cc(-c2ccc(F)c(C(F)(F)F)c2)c2c(=O)n(CC(=O)N3CCC(F)C3)ccc21 (centres unmarked) [Example 239, 1-ethyl-3-(4-fluoro-3-(trifluoromethyl)phenyl)-5-(2-(3-fluoropyrrolidin-1-yl)-2-oxoethyl)-1H-pyrrolo[3,2-c]pyridin-4(5H)-one]	86
